In PMC12314892, “Macrocyclic Phage Display for Identification of Selective Protease Substrates” (Journal of the American Chemical Society, 2025):
*1 amine or outer side, *2 acyl side, *3 side chain or, on linkers, in order; H or OH if unused. Where a SMILES comes first, the peptide text is derived from it. Bridges are numbered along the chain shown (N, C = ends). The star is where a group is joined. X1 = NC(=O)Cc1cc(=O)oc2cc(NC(=O)[C@@H]3CCCN3C(=O)Cn3nc(C[*:1])cc3C[*:2])ccc12; X2 = NC(=O)Cc1cc(=O)oc2cc(NC(=O)[C@@H]3CCCN3C(=O)Cn3nc(C[*:2])cc3C[*:1])ccc12; AMC = Cc1cc(=O)oc2cc(N*)ccc12; Cbz = O=C(OCc1ccccc1)*

How the values were obtained:
[1] = target: T1, Recombinant Human Prolyl Oligopeptidase/PREP (Homo sapiens, UniProt P48147); experiment: Kinetic evaluation of substrates; format: biochemical; conditions: for SI (selectivity index, coefficient of the proteases kcat/Km), FAPα vs PREP: kcat/KM FAPα over kcat/KM PREP
T1 construct: purchased R&D Systems 4308-SE-010
T1 sequence (P48147 1-710): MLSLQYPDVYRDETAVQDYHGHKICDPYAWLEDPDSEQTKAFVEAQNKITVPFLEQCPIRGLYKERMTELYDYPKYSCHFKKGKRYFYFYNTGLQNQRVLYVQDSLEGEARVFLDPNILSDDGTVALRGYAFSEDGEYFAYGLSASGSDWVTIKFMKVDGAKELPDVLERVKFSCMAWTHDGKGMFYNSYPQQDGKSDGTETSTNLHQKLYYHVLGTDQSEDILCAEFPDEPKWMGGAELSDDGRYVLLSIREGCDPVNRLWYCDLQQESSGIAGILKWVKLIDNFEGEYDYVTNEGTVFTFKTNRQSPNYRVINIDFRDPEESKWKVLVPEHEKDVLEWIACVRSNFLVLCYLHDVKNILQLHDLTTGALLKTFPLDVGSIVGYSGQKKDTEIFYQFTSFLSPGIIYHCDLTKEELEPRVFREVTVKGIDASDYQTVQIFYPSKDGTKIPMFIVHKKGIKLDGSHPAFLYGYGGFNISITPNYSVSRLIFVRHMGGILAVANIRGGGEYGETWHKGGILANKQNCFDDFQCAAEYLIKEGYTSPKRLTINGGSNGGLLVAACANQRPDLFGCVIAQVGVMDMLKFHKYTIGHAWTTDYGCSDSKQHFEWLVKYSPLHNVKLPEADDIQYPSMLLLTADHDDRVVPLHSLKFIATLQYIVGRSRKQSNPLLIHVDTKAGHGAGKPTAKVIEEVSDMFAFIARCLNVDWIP
Experimental: (§1) Fluorogenic Substrate Cleavage Assay
(§2) The following proteases were used for the activity assay: Recombinant Human FAPα Protein, CF (R&D Systems, Catalog No.: 3715-SE-010), Recombinant Human Prolyl Oligopeptidase/PREP Protein, CF (R&D Systems, Catalog No.: 4308-SE-010). Recombinant Human DPP9 Protein, CF (R&D Systems, Catalog No.: 5419-SE-010). Recombinant Human DPP4 Protein (Sino Biological, Catalog No.: 10688-HNCH-10). The buffers used for the activity assay were: FAPα - 50 mM Tris, 1 M NaCl, 1 mg/mL BSA, pH 7.5, PREP- 25 mM Tris, 250 mM NaCl, 2.5 mM DTT, pH 7.5 (DTT was freshly added immediately before use), DPP9- 25 mM Tris, pH 7.5, DPP4- 25 mM Tris, pH
(§3) 7.5. The following commercial substrates were used: zGP-AMC (Bachem,Catalog No.: […]
(§4) conducted in Greiner Bio-One black microplates of 384 wells and polystyrene F-bottom (Catalog No.: 784076). All compounds were dissolved in DMSO at a concentration of 10 mM and then diluted into the respective buffer to the desired final concentration. The protease was added to the specified concentration before the fluorescence measurements. For fluorescence measurements, 2 μL of substrate was further diluted into 6 μL of buffer, followed by addition of 2 μL of enzyme in buffer. For no enzyme controls 2 μL of substrate was diluted into 8 μL of buffer.
(§5) The fluorescence was measured using a Cytation 3 plate reader (BioTek). All experiments have at least three technical replicates. All assays were conducted at 37°C for a minimum of 90 min, unless otherwise noted. Fluorescence measurements were performed at ex/em, 355/460 nm for ACC substrates. The substrates velocity was quantified by calculating the slope of the linear phase of the reaction as relative fluorescence units (RFU) per min.
(§6) Kinetic evaluation of substrates
(§7) To order to determine the kcat/KM, the previously indicated proteases were tested under their corresponding buffer conditions. Substrates were serially diluted in water, and 2 µL of each dilution was added to 6 µL of assay buffer in a 384-well plate. The plate was briefly centrifuged to ensure proper mixing and to eliminate air bubbles. Fluorescence measurements were initiated by adding 2 µL of the protease solution (prepared in activity buffer) to each well, yielding a final volume of 10 µL. Reactions were monitored at 37 °C for 60 minutes using a plate reader set to excitation/emission wavelengths of 355/460 nm. Control wells without enzyme contained 8 µL of assay buffer, instead of enzyme, and 2 µL of substrate. All measurements were performed in at least triplicate. The initial linear portion of each fluorescence progress curve was used to calculate initial reaction velocities (RFU/min). Calibration curves using free AMC were generated under the corresponding buffer and assay conditions to allow extrapolation of RFU values to µM concentrations. Michaelis-Menten kinetic parameters K M, kcat and kcat/,KM were determined using […]
(§8) GraphPad Prism version 10.4.1. […]
(§9) determined due to poor model fit. […]

Recombinant Human DPP4 = target: T2, Recombinant Human DPP4 (Homo sapiens, UniProt P27487); experiment: Kinetic evaluation of substrates; format: biochemical; conditions: for SI (selectivity index, coefficient of the proteases kcat/Km), FAPα vs DPP4: kcat/KM FAPα over kcat/KM DPP4
T2 construct: purchased Sino Biological 10688-HNCH-10
T2 sequence (P27487 whole entry): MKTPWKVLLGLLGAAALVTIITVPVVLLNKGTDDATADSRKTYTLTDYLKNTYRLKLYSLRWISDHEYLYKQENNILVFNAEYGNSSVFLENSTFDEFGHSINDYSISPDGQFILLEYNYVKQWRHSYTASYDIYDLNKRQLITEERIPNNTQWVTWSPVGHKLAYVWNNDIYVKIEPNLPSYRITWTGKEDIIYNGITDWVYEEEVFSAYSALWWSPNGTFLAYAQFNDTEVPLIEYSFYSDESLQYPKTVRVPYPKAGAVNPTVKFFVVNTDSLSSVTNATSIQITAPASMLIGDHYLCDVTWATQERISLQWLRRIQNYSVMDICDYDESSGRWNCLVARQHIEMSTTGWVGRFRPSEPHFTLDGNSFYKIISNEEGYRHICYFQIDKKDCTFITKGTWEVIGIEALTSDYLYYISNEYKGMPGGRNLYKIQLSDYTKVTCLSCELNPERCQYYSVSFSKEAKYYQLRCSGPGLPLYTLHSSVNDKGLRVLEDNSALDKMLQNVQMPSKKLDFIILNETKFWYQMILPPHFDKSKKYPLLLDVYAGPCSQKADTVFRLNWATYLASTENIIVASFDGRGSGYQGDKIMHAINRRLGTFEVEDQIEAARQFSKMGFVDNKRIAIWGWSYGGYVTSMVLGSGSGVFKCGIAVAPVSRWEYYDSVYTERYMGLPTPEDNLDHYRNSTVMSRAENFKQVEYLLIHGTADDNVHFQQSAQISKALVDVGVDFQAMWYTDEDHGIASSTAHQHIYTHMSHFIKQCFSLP
Experimental: as §1, §2, §3, §4, §5, §6, §7, §8, §9

[2] = 3 nM PREP, 37 °C, 60 min, Michaelis-Menten fit, triplicates
[3] = 3 nM DPP4, 37 °C, 60 min, Michaelis-Menten fit, triplicates
[4] = 3 nM DPP4, 37 °C, 60 min, Michaelis-Menten fit, triplicates, ± SD

Cc1cc(=O)oc2cc(NC(=O)[C@@H]3CCCN3C(=O)CNC(=O)OCc3ccccc3)ccc12 [zGP-AMC] (Cbz-Gly-Pro-{AMC})
Km ([1]; 3 nM PREP, 25 mM Tris, 250 mM NaCl, 2.5 mM DTT, pH 7.5, 37 °C, 60 min, triplicates, ± SD, FAP33.2 and FAP33.2A6 showed substrate inhibition): 161 ± 91 µM | kcat [1, 2]: 113.05 s⁻¹ | kcat/KM [1, 2]: 633723 M⁻¹ s⁻¹ | SI (selectivity index, coefficient of the proteases kcat/Km), FAPα vs PREP [1]: 0.24

CC(C)C[C@@H]1NC(=O)[C@H](CC(N)=O)NC(=O)[C@H](CCC(N)=O)NC(=O)[C@H](Cc2ccccc2)NC(=O)[C@H](CO)NC(=O)[C@H](C(C)C)NC(=O)[C@@H](N)CSCc2cc(nn2CC(=O)N2CCC[C@H]2C(=O)Nc2ccc3c(CC(N)=O)cc(=O)oc3c2)CSC[C@@H](C(=O)NCC(N)=O)NC(=O)[C@H](CC(=O)O)NC1=O [FAP-33.2] (H-CVSFQNLDCG-NH2; linker 1-9 via X2; N-terminus assumed)
SI (selectivity index, coefficient of the proteases kcat/Km), FAPα vs DPP4 (Recombinant Human DPP4): FAPα >>>DPP4 | SI (selectivity index, coefficient of the proteases kcat/Km), FAPα vs PREP [1]: FAPα >>>PREP

Cc1cc(=O)oc2cc(NC(=O)[C@@H]3CCCN3C(=O)CN)ccc12 [GP-AMC] (H-Gly-Pro-{AMC})
Km (Recombinant Human DPP4; 3 nM DPP4, 25 mM Tris, pH 7.5, 37 °C, 60 min, ex/em 355/460 nm, Michaelis-Menten fit, triplicates, ± SD): 52 ± 4 µM | kcat/KM (Recombinant Human DPP4; [3]): 380000 M⁻¹ s⁻¹ | kcat (Recombinant Human DPP4; [4]): 19.9 ± 0.6 s⁻¹ | SI (selectivity index, coefficient of the proteases kcat/Km), DPP4 vs PREP ([1]; kcat/KM DPP4 over kcat/KM PREP): DPP4>>>PREP

CC(C)[C@@H]1NC(=O)[C@@H](N)CSCc2cc(n(CC(=O)N3CCC[C@H]3C(=O)Nc3ccc4c(CC(N)=O)cc(=O)oc4c3)n2)CSC[C@@H](C(=O)NCC(N)=O)NC(=O)[C@H](CC(=O)O)NC(=O)[C@H](C)NC(=O)[C@H](CC(N)=O)NC(=O)[C@H](CCC(N)=O)NC(=O)[C@H](Cc2ccccc2)NC(=O)[C@H](CO)NC1=O [FAP-33.2A6] (H-CVSFQNADCG-NH2; linker 1-9 via X1; N-terminus assumed)
kcat/KM (Recombinant Human DPP4; [3]): 5168 M⁻¹ s⁻¹ | kcat (Recombinant Human DPP4; [4]): 0.460 ± 0.018 s⁻¹ | SI (selectivity index, coefficient of the proteases kcat/Km), FAPα vs DPP4 (Recombinant Human DPP4): 6 | Ki ([1]; 3 nM PREP, substrate inhibition, 37 °C): 34.4 µM | SI (selectivity index, coefficient of the proteases kcat/Km), FAPα vs PREP [1]: FAPα >>>PREP
